This is an account of results in US20250188080A1, “IMIDAZOLONYLQUINOLINE COMPOUNDS AND THERAPEUTIC USES THEREOF” (Merck Patent GmbH, priority 2019, published 2025).

“Also recorded” adds a separate entry of the source. Some results are limits rather than exact numbers.

Series [1] has as its target T1, Kv11.1 hERG cardiac ion channel (Homo sapiens, UniProt Q12809).
T1 construct: expressed in transfected cells; host or cells: HEK293 (human embryonic kidney cells), stably transfected
The series is described as follows: Kv11.1 (hERG) ion channel activity (patch clamp assay). It is filed as cell-based. Conditions: HEK293 transfected with hERG. The protocol: Method for the detection and characterisation of test substances which interfere with the Kv11.1 (hERG) channel: Kv11.1 (hERG, human ether a-go-go related gene) is a potassium channel which plays a central role for repolarisation of the cells in the ventricular cardiomyocytes.
The patch-clamp measurement was carried out at room temperature in whole-cell configuration on human embryonic kidney cells (HEK293) which have been transfected in a stable manner with the hERG gene.
The whole-cell configurations were carried out using an automated patch clamp device (Patchliner™, Nanion Technologies, Munich). […]
The cells were clamped to a holding potential of −80 mV. […] DMSO (vehicle control, 0.1% of DMSO) was then applied, and the control current was recorded for 3 min. The test substance was subsequently added twice in the same concentration, and the potassium current was measured for 3.5 min in each case.
If the measurement result of a test substance at an initial concentration of 10 μM was smaller than (−)50% effect (threshold value) (for example (−)60% effect), the test substance was, in order to determine a dose/action relationship, added cumulatively in increasing concentration, where each concentration was measured for 5 min.
The reference substance used was the Kv11.1 (hERG) ion channel blocker quinidine. […] For the calculation, the current was evaluated for the respective final trace. […]
In general terms: hERG is a cardiac potassium channel; its block is linked to QT prolongation.

In series [2] the test system is CYP1A2, CYP2C8, CYP2C9, CYP2C19, CYP2D6, CYP3A4. The series is described as follows: Cytochrome P-450 enzymes (CYP) inhibition, P450-Glo. It is filed as in vitro ADME. To be noted: human. The protocol: In the human organism, drug substances are converted to water-soluble compounds by enzyme systems to facilitate their excretion. These enzyme systems include microsomal cytochrome P-450 enzymes, CYPs for short. The assay is designed to identify whether a compound may be a strong inhibitor for defined CYP isoforms. This involves the use of recombinant CYP isoforms and their reductase obtained by overexpression in insect cells infected with baculovirus. The CYP reaction is performed through […] of the CYP isoform being tested along with a luminometric CYP substrate under NADPH-regenerating conditions. The luminometric P450-Glo™ substrates are derivatives of beetle luciferin ((4S)-4,5-dihydro-2-(6-hydroxybenzothiazolyl)-4-thiazolecarboxylic acid or D-luciferin), a substrate of firefly luciferase from beetles. […] This allows enzyme activity to be quantified rapidly through the luminosity. […] The following commercially available screening systems/assays are used: P450-Glo™ CYP1A2 Screening System (Promega Corporation; V9770); P450-Glo™ CYP2C8 Assay (Promega Corporation; V8782); P450-Glo™ CYP2C9 Screening System (Promega Corporation; V9790); P450-Glo™ CYP2C19 Screening System (Promega Corporation; V9880); P450-Glo™ CYP2D6 Screening System (Promega Corporation; […]); P450-Glo™ CYP3A4 Screening System (Luciferin-PPXE) (Promega Corporation; V9910).

The test system of series [3] is xenografts of the human squamous cell head and neck model FaDu. Briefly: FaDu SCCHN tumor model, combination with irradiation. It is filed as in vivo, NMRI nu/nu mice. Conditions: oral 10 or 25 mg/kg 30 min before each IR fraction; 6×5 days, 2 Gy. The method, then: One of the control groups was treated with vehicle only. The other control group was treated with IR only at 30 fractions IR of 2 Gy in a 5 days on/2 days off schedule and over a period of 6 weeks.

T1 sequence (Q12809 whole entry): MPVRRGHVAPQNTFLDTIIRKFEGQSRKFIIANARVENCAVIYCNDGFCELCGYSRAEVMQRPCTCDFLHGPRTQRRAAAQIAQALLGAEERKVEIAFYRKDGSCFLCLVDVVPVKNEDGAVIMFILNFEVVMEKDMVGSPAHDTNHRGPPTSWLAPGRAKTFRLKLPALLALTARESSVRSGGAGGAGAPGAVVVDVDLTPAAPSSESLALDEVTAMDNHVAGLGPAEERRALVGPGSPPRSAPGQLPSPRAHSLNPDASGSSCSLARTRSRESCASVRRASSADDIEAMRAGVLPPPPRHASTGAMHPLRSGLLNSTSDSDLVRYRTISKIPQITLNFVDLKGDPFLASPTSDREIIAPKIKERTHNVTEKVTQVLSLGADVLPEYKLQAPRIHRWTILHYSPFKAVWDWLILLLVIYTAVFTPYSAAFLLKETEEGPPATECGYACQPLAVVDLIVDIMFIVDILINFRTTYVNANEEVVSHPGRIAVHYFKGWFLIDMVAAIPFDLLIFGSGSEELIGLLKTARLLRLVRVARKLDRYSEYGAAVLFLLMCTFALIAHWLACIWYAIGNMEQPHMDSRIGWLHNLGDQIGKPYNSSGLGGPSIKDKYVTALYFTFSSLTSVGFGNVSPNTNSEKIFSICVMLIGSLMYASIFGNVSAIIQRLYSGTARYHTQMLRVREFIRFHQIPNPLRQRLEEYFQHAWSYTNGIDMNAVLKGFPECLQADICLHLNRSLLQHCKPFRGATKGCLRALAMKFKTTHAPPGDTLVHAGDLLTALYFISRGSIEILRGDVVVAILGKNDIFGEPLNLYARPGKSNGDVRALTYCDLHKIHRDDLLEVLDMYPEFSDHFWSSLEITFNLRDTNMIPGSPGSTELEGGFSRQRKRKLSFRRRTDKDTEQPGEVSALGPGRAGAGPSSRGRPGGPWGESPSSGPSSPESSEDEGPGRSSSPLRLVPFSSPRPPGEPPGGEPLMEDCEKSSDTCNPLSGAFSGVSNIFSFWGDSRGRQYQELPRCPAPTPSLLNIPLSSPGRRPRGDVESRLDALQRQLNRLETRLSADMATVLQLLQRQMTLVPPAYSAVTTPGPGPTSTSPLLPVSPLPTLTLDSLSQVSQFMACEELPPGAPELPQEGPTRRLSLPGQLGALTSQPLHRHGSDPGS

For `COc1cc2ncc3c(c2cc1-c1cn(C)nc1C)n(-c1c(F)cncc1OC)c(=O)n3C` (single isomer, unassigned) [Compound 1, 8-(1,3-Dimethyl-1H-pyrazol-4-yl)-1-(Sa)-(3-fluoro-5-methoxy-pyridin-4-yl)-7-methoxy-3-methyl-1,3-dihydro-imidazo[4,5-c]quinolin-2-one], the inhibition constant (Ki) in series [1] is greater than 30 µM. The IC50 in series [2] is no less than 20 µM. Further, in series [3], the “Anti-tumor efficacy in combination with irradiation” value is “significant dose-dependent anti-tumor responses; also recorded: strongly enhanced the efficacy of IR (irradiation) in a dose-dependent manner; also recorded: strong tumor growth inhibition”.

Usually Ki stands for the dissociation constant of the complex between target and ligand, obtained from inhibition or displacement. The low end stands for higher affinity, the high end for lower affinity. As a reminder, the IC50 is the concentration at which inhibition is half-maximal.
